# Results: patent publication EP4603105A1, “PHARMACEUTICAL COMPOSITION CONTAINING CYCLIC COMPOUND HAVING SELECTIVE KRAS INHIBITORY EFFECT AGAINST HRAS AND NRAS” (CHUGAI SEIYAKU KABUSHIKI KAISHA, priority 2022, dated 2024)
# Where two headings read alike, the source gives them in different places.
# Experiments:
# HRAS wild-type protein = HRAS wild-type protein (Homo sapiens, UniProt P01112); experiment: Binding to HRAS by surface plasmon resonance (SPR), KD and KD ratio to KRAS; conditions: ratio of KD for HRAS wild-type protein to KD for KRAS
# Procedure, shortened: (§1)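 Biotinylated GDP-bound RAS was captured at about 100–300 RU. Running buffer: HBS pH 7.4, 10 mM MgCl2, 10 µM GDP, 1 mM DTT, 0.01% Tween 20, 4% DMSO.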
# [1] = test system: human lung cancer strain NCI-H441; assay type: cell-based
# Procedure, shortened: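 Step one: dispense the test compound in serial DMSO dilutions. Step three: add the reagent and measure […].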
# [2] = target: GDP-bound NRAS wild-type protein (Homo sapiens, UniProt P01111); experiment: Binding to NRAS by surface plasmon resonance (SPR), KD and KD ratio to KRAS; conditions: ratio of KD for GDP-bound NRAS wild-type protein to KD for KRAS
# Procedure, shortened: as §1
# [3] = NCI-H441 cells, 4 days, CellTiter-Glo, read-out: NCl-H441 IC50
# Sequence of HRAS wild-type protein (P01112 whole entry): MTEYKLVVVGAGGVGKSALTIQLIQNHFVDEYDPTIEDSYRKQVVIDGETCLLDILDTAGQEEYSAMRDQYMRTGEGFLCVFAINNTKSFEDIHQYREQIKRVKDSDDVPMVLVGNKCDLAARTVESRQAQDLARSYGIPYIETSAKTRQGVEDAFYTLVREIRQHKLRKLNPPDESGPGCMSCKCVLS
# Sequence of GDP-bound NRAS wild-type protein (P01111 whole entry): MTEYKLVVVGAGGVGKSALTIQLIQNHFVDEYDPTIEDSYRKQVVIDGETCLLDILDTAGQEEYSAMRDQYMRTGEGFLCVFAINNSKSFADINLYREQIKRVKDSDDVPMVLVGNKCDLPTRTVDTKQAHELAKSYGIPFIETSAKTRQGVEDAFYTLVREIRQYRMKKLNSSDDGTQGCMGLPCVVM
Compound,HRAS /KRAS (HRAS wild-type protein),IC50 [1],NRAS /KRAS [2],"IC50 [1, 3]"
CCO[C@@H]1C[C@H]2C(=O)NC3(CC(C)(C)C3)C(=O)N(C)[C@@H](C3CCCC3)C(=O)N(C)[C@H](C(=O)N(C)C)CC(=O)N(C)[C@@H](CC(C)C)C(=O)N[C@@H]([C@@H](C)CC)C(=O)N(C)CC(=O)N(C)[C@H]3C/C=C\CCN(C3=O)[C@@H](Cc3ccc(C4CC4)cc3)C(=O)N(C)CC(=O)N[C@@H](CCc3ccc(C(F)(F)F)c(OC)c3)C(=O)N2C1 [PP2691],A (a compound having 10 or more and less than 20 is denoted as A),3.5 nM,AA (a compound having 20 or more is denoted as AA),
CCO[C@@H]1C[C@H]2C(=O)NC3(CC(C)(C)C3)C(=O)N(C)[C@@H](C3CCCC3)C(=O)N(C)[C@H](C(=O)N(C)C)CC(=O)N(C)[C@@H](CC(C)C)C(=O)N[C@@H]([C@@H](C)CC)C(=O)N(C)CC(=O)N(C)[C@H]3C/C=C\CCN(C3=O)[C@@H](Cc3ccc(C(C)C)cc3)C(=O)N(C)CC(=O)N[C@@H](CCc3ccc(C(F)(F)F)c(OC)c3)C(=O)N2C1 [PP2692],A (a compound having 10 or more and less than 20 is denoted as A),7.7 nM,A (a compound having 10 or more and less than 20 is denoted as A),
CCO[C@@H]1C[C@H]2C(=O)NC3(CC(C)(C)C3)C(=O)N(C)[C@@H](C3CCCC3)C(=O)N(C)[C@H](C(=O)N(C)C)CC(=O)N(C)[C@@H](CC(C)C)C(=O)N[C@@H]([C@@H](C)CC)C(=O)N(C)CC(=O)N(C)[C@H]3C/C=C\CCN(C3=O)[C@@H](Cc3ccc(OC)cc3)C(=O)N(C)CC(=O)N[C@@H](CCc3ccc(C(F)(F)F)c(OC)c3)C(=O)N2C1 [PP2693],B (a compound having 3 or more and less than 10 is denoted as B),,A (a compound having 10 or more and less than 20 is denoted as A),10.4 nM
CCO[C@@H]1C[C@H]2C(=O)NC3(CC(C)(C)C3)C(=O)N(C)[C@@H](C3CCCC3)C(=O)N(C)[C@H](C(=O)N(C)C)CC(=O)N(C)[C@@H](CC(C)C)C(=O)N[C@@H]([C@@H](C)CC)C(=O)N(C)CC(=O)N(C)[C@H]3C/C=C\CCN(C3=O)[C@@H](Cc3ccc(C(C)=O)cc3)C(=O)N(C)CC(=O)N[C@@H](CCc3ccc(C(F)(F)F)c(OC)c3)C(=O)N2C1 [PP2694],B (a compound having 3 or more and less than 10 is denoted as B),12 nM,A (a compound having 10 or more and less than 20 is denoted as A),
CCO[C@@H]1C[C@H]2C(=O)NC3(CC(C)(C)C3)C(=O)N(C)[C@@H](C3CCCC3)C(=O)N(C)[C@H](C(=O)N(C)C)CC(=O)N(C)[C@@H](CC(C)C)C(=O)N[C@@H]([C@@H](C)CC)C(=O)N(C)CC(=O)N(C)[C@H]3C/C=C\CCN(C3=O)[C@@H](Cc3ccc4c(c3)CCC4(F)F)C(=O)N(C)CC(=O)N[C@@H](CCc3ccc(C(F)(F)F)c(OC)c3)C(=O)N2C1 [PP2695],B (a compound having 3 or more and less than 10 is denoted as B),3.8 nM,A (a compound having 10 or more and less than 20 is denoted as A),
CCOC[C@H]1C(=O)N[C@@H]([C@@H](C)CC)C(=O)N(C)CC(=O)N(C)[C@H]2C/C=C\CCN(C2=O)[C@@H](Cc2ccc(C)cc2F)C(=O)N(C)CC(=O)N[C@@H](CCc2ccc(C(F)(F)F)c(OC)c2)C(=O)N2C[C@@H](C)C[C@H]2C(=O)NC2(CC(C)(C)C2)C(=O)N(C)[C@@H](C2CCCC2)C(=O)N(C)[C@H](C(=O)N(C)CC)CC(=O)N1C [PP2697],A (a compound having 10 or more and less than 20 is denoted as A),,A (a compound having 10 or more and less than 20 is denoted as A),42.8 nM
CCOC[C@H]1C(=O)N[C@@H]([C@@H](C)CC)C(=O)N(C)CC(=O)N(C)[C@H]2C/C=C\CCN(C2=O)[C@@H](Cc2ccc(C)c(F)c2)C(=O)N(C)CC(=O)N[C@@H](CCc2ccc(C(F)(F)F)c(OC)c2)C(=O)N2C[C@@H](C)C[C@H]2C(=O)NC2(CC(C)(C)C2)C(=O)N(C)[C@@H](C2CCCC2)C(=O)N(C)[C@H](C(=O)N(C)CC)CC(=O)N1C [PP2698],A (a compound having 10 or more and less than 20 is denoted as A),,A (a compound having 10 or more and less than 20 is denoted as A),30.4 nM
CCOC[C@H]1C(=O)N[C@@H]([C@@H](C)CC)C(=O)N(C)CC(=O)N(C)[C@H]2C/C=C\CCN(C2=O)[C@@H](Cc2ccc(C(C)(F)F)cc2)C(=O)N(C)CC(=O)N[C@@H](CCc2ccc(C(F)(F)F)c(OC)c2)C(=O)N2C[C@@H](C)C[C@H]2C(=O)NC2(CC(C)(C)C2)C(=O)N(C)[C@@H](C2CCCC2)C(=O)N(C)[C@H](C(=O)N(C)CC)CC(=O)N1C [PP2699],B (a compound having 3 or more and less than 10 is denoted as B),,A (a compound having 10 or more and less than 20 is denoted as A),14.2 nM
CCOC[C@H]1C(=O)N[C@@H]([C@@H](C)CC)C(=O)N(C)CC(=O)N(C)[C@H]2C/C=C\CCN(C2=O)[C@@H](Cc2ccc(C3CC3)cc2)C(=O)N(C)CC(=O)N[C@@H](CCc2ccc(C(F)(F)F)c(OC)c2)C(=O)N2C[C@@H](C)C[C@H]2C(=O)NC2(CC(C)(C)C2)C(=O)N(C)[C@@H](C2CCCC2)C(=O)N(C)[C@H](C(=O)N(C)CC)CC(=O)N1C [PP2700],B (a compound having 3 or more and less than 10 is denoted as B),,A (a compound having 10 or more and less than 20 is denoted as A),23.1 nM
CCOC[C@H]1C(=O)N[C@@H]([C@@H](C)CC)C(=O)N(C)CC(=O)N(C)[C@H]2C/C=C\CCN(C2=O)[C@@H](Cc2ccc(C(C)C)cc2)C(=O)N(C)CC(=O)N[C@@H](CCc2ccc(C(F)(F)F)c(OC)c2)C(=O)N2C[C@@H](C)C[C@H]2C(=O)NC2(CC(C)(C)C2)C(=O)N(C)[C@@H](C2CCCC2)C(=O)N(C)[C@H](C(=O)N(C)CC)CC(=O)N1C [PP2701],A (a compound having 10 or more and less than 20 is denoted as A),,A (a compound having 10 or more and less than 20 is denoted as A),21.7 nM
CCOC[C@H]1C(=O)N[C@@H]([C@@H](C)CC)C(=O)N(C)CC(=O)N(C)[C@H]2C/C=C\CCN(C2=O)[C@@H](Cc2ccc(OC)cc2)C(=O)N(C)CC(=O)N[C@@H](CCc2ccc(C(F)(F)F)c(OC)c2)C(=O)N2C[C@@H](C)C[C@H]2C(=O)NC2(CC(C)(C)C2)C(=O)N(C)[C@@H](C2CCCC2)C(=O)N(C)[C@H](C(=O)N(C)CC)CC(=O)N1C [PP2702],B (a compound having 3 or more and less than 10 is denoted as B),,A (a compound having 10 or more and less than 20 is denoted as A),21.4 nM
CCOC[C@H]1C(=O)N[C@@H]([C@@H](C)CC)C(=O)N(C)CC(=O)N(C)[C@H]2C/C=C\CCN(C2=O)[C@@H](Cc2ccc(C(C)=O)cc2)C(=O)N(C)CC(=O)N[C@@H](CCc2ccc(C(F)(F)F)c(OC)c2)C(=O)N2C[C@@H](C)C[C@H]2C(=O)NC2(CC(C)(C)C2)C(=O)N(C)[C@@H](C2CCCC2)C(=O)N(C)[C@H](C(=O)N(C)CC)CC(=O)N1C [PP2703],A (a compound having 10 or more and less than 20 is denoted as A),,AA (a compound having 20 or more is denoted as AA),80.5 nM
CCOC[C@H]1C(=O)N[C@@H]([C@@H](C)CC)C(=O)N(C)CC(=O)N(C)[C@H]2C/C=C\CCN(C2=O)[C@@H](Cc2ccc3c(c2)CCC3(F)F)C(=O)N(C)CC(=O)N[C@@H](CCc2ccc(C(F)(F)F)c(OC)c2)C(=O)N2C[C@@H](C)C[C@H]2C(=O)NC2(CC(C)(C)C2)C(=O)N(C)[C@@H](C2CCCC2)C(=O)N(C)[C@H](C(=O)N(C)CC)CC(=O)N1C [PP2704],B (a compound having 3 or more and less than 10 is denoted as B),,B (a compound having 3 or more and less than 10 is denoted as B),10.7 nM
CCO[C@@H]1C[C@H]2C(=O)NC3(CC(C)(C)C3)C(=O)N(C)[C@@H](CC3CCC3)C(=O)N(C)[C@H](C(=O)N(C)C)CC(=O)N(C)[C@@H](COC)C(=O)N[C@@H]([C@@H](C)CC)C(=O)N(C3CC3)CC(=O)N(C)[C@H]3C/C=C\CCN(C3=O)[C@@H](Cc3ccc(C(F)(F)F)cc3)C(=O)N(C)CC(=O)N[C@@H](CCc3cc(F)c(C(F)(F)F)c(F)c3)C(=O)N2C1 [PP2769],A (a compound having 10 or more and less than 20 is denoted as A),133 nM,AA (a compound having 20 or more is denoted as AA),
CCC[C@H]1C(=O)N[C@@H]([C@@H](C)CC)C(=O)N(C2CC2)CC(=O)N(C)[C@H]2C/C=C\CCN(C2=O)[C@@H](Cc2ccc(C(F)(F)F)cc2)C(=O)N(C)CC(=O)N[C@@H](CCc2ccc(C(F)(F)F)c(OC)c2)C(=O)N2C[C@H](OCC)C[C@H]2C(=O)NC2(CC(C)(C)C2)C(=O)N(C)[C@@H](CC2CCC2)C(=O)N(C)[C@H](C(=O)N(C)C)CC(=O)N1C [PP2770],A (a compound having 10 or more and less than 20 is denoted as A),137 nM,A (a compound having 10 or more and less than 20 is denoted as A),
